In patent US20080319084A1, “Wrinkling Prevention or Remedy with Adam Activity Inhibiting Substance” (Shiseido Company, Ltd., priority 2004, published 2008):

How the values were obtained:
[1] = system: finely wrinkled mouse model; experiment: Anti-wrinkling effects of medicine application on finely wrinkled mouse model (tape stripping); type: in vivo, hairless mouse (HR-1); parameters: key to Wrinkling suppressing effects / Epidermal hyperplasia suppressing effects / Dermal hyperplasia suppressing effects: O: Remedied.; Δ: No alteration was found.; x: Aggravated; conditions: for Dermal hyperplasia suppressing effects / Epidermal hyperplasia suppressing effects / Wrinkling suppressing effects: 100 μl applied to skin after each tape stripping, 2 mM TAPI-1, 1% CGS27023A, 10% glycerol, 1% oleic acid; for Dermal hyperplasia suppressing effects / Epidermal hyperplasia suppressing effects: four weeks, HE-stained slices; for Wrinkling suppressing effects: up to four weeks; for hyperplasia of the epidermis and the dermis (in words) / wrinkle formation (in words): finely wrinkled mouse model, topical application
Description: It is considered that, in cases where the skin barrier is weakened or disrupted by various primary factors, such as a decrease in sebum and face washing, and water evaporation from the skin surface increases, the skin dries, and the fine wrinkles are formed. Therefore, tape stripping was repeatedly performed on the skin of a hairless mouse, the stratum corneum of thus peeled off, and the skin barrier was broken. In this manner, a finely wrinkled mouse model was prepared. Specifically, the tape stripping with cellophane adhesive tapes was performed on the skin on the left side of the dorsal section of a hairless mouse (HR-1, male, six weeks of age, supplied by Hoshino Experimental Animals) with the number of times of the tape stripping being adjusted such that a transepidermal water loss (TEWL) (as measured by use of a water evaporation quantity measuring apparatus MEECO, supplied by Meeco Co., U.S.A) might fall within the range of 4 mg/cm^2/h to 6 mg/cm^2/h. Ordinarily, at the initial stage, the tape stripping was iterated approximately four times. At the final stage, the tape stripping was iterated seven to eight times. The tape stripping was performed in three stages per week and was continued for four weeks. The right side of the dorsal section of the hairless mouse was left to stand as a non-treatment area. Studies were made with respect to the anti-wrinkling effects of the application of various medicines, which were listed in Table 2 below, on the finely wrinkled mouse model. Specifically, the tape stripping was performed on a hairless mouse in the manner described above. After each tape stripping processing, 100 μl of each of the medicines listed in Table 2 was applied to the skin of the hairless mouse. FIG. 4A is a diagram showing replica images of skins having been applied with different medicines in the finely wrinkled mouse model, which replica images have been taken at stages one week, two weeks, and four weeks after the application of each of the medicines. FIG. 4B is a diagram showing microscopic photographs of skin tissue slices of the skins at the stage four weeks after the application of each of the medicines, which skin tissue slices have been stained with HE (hematoxylin-eosin).

Photo-aged mouse model = experiment: Wrinkle formation in Photo-aged mouse model (UV light irradiation); type: in vivo
Description: FIG. 2A is a diagram showing replica images of the mouse skin having been subjected to the tape stripping in the manner described above. FIG. 2B is a diagram showing microscopic photographs of a skin tissue slice of the mouse skin, which skin tissue slice has been stained with HE (hematoxylin-eosin). As illustrated in the replica images (FIG. 2A), skin ditches became deep at the stage 24 hours (24 h) after the beginning of the tape stripping and at the stage 48 hours (48 h) after the beginning of the tape stripping. At the stage one week (1 W) after the beginning of the tape stripping, the directions of the skin ditches coincided with predetermined directions. At the stage four weeks (4 W) after the beginning of the tape stripping, a wrinkle-like appearance occurred. […] At the stage two weeks (2 W) after the beginning of the tape stripping, the epidermal hyperplasia was kept. Table 1 shown below lists morphological alterations, histological alterations, and the like, of the finely wrinkled mouse model having been prepared in the manner described above together with the morphological alterations, histological alterations, and the like, of a Photo-aged mouse model having been prepared with UV light irradiation (for 10 weeks).

[2] = system: finely wrinkled mouse model; experiment: Evaluation of anti-wrinkling effects of ADAM activity inhibiting substances in finely wrinkled mouse model (visual score, wrinkle area); type: in vivo, hairless mouse (HR-1); conditions: for mean value of the wrinkle score (visual judgment, 0 no wrinkle to 3 deep wrinkles): after four weeks, 1 mM TAPI-1 or 1% 4-methoxybenzohydroxamic acid in 50% aqueous ethanol, 100 μl after each tape stripping, vehicle 1.17; for mean value of the wrinkle area (%) versus vehicle: replica analysis after four weeks, 1 mM TAPI-1 or 1% 4-methoxybenzohydroxamic acid
Description: The anti-wrinkling effects of TAPI-1 and 4-methoxybenzohydroxamic acid acting as the ADAM activity inhibiting substances were studied by use of the finely wrinkled mouse model.
Specifically, on the skin on the left side of the dorsal section of a hairless mouse (HR-1, male, six weeks of age, supplied by Hoshino Experimental Animals), the tape stripping was performed in three stages per week and was continued for four weeks such that the transepidermal water loss (TEWL) (as measured by use of a water evaporation quantity measuring apparatus MEECO, supplied by Meeco Co., U.S.A) might fall within the range of 4 mg/cm^2/h to 8 mg/cm^2/h. Immediately after each stage of the tape stripping processing had been performed, 100 μl of TAPI-1 or 4-methoxybenzohydroxamic acid was applied to the skin on the left side of the dorsal section of the mouse. At this time, 4-methoxybenzohydroxamic acid was dissolved in a 50% aqueous ethanol solution such that the concentration of 4-methoxybenzohydroxamic acid might become equal to 1%, and 4-methoxybenzohydroxamic acid was used in the form of the resulting solution. Also, TAPI-1 (supplied by Peptide Research Institute) was evaluated at a concentration of 1 mM. Further, as a negative control, a 50% aqueous ethanol solution (i.e., a vehicle) was applied in the same manner as that described above.
The state of occurrence of wrinkles after a period of four weeks had elapsed was expressed by scores with visual judgment. The state of occurrence of wrinkles was evaluated with the rating described below. • 0: No wrinkle • 1: shallow wrinkles • 2: clear wrinkles • 3: Deep wrinkles The state of occurrence of wrinkles was expressed by the scores at intervals of 0.5. A larger score represents deeper wrinkles. The mean value and the standard deviation of each group were calculated. The results illustrated in FIG. 5 were obtained.
Thereafter, the replicas of the dorsal section of the mouse were analyzed by use of a wrinkle analyzing apparatus (supplied by Hamano Engineering), and the wrinkle area (%) was calculated. A low wrinkle area percentage represents that the wrinkle formation has been suppressed. The results illustrated in FIG. 6 were obtained.

ADAM enzyme = experiment: Screening of ADAM activity inhibiting substance: TPA-induced HB-EGF-AP release from HB-EGF-AP/HT-1080 cells; type: cell-based, human; conditions: 60 nM TPA, 60 minutes
Description: Firstly, the screening of a compound having the ADAM enzyme inhibiting activity was performed by use of HB-EGF-AP/HT-1080 (human fibrosarcoma-derived cultured cells HT-1080 having been modified so as to achieve forcible expression of a fusion protein, in which heat-resistant alkaline phosphatase (AP) has been added to an N terminal of human HB-EGF). On the surfaces of the cells of the used cell strain HB-EGF-AP/HT-1080, the HB-EGF entire length molecule is expressed in the form fused with the alkaline phosphatase. In cases where the cells are excited by a phorbol ester, the ADAM enzyme on the cell membrane surfaces is activated to cut the HB-EGF molecule. Since alkaline phosphatase has been bound to HB-EGF having been cut into the released form, in cases where the alkaline phosphatase activity in a culture supernatant is measured, the ADAM enzyme inhibiting activity of the compound is capable of being measured indirectly.
Specifically, HB-EGF-AP/HT-1080, in which the number of cells had been adjusted at 2.0×10^5 cells/ml, was sowed at a rate of 0.2 ml/well to a 96-well culture micro-plate and was cultured overnight at a temperature of 37° C. […] After the incubation was performed at the room temperature for two hours under a light blocking condition, the absorbance in each well at the wavelength of 405 nm was measured again. […]

Row | Compound | Dermal hyperplasia suppressing effects [1] | Epidermal hyperplasia suppressing effects [1] | Wrinkling suppressing effects [1] | hyperplasia of the epidermis and the dermis (in words) [1] | wrinkle formation (in words) [1] | wrinkle formation preventing effects (in words) (Photo-aged mouse model) | mean value of the wrinkle score (visual judgment, 0 no wrinkle to 3 deep wrinkles) [2] | mean value of the wrinkle area (%) versus vehicle [2] | Inhibition rate (%) of HB-EGF release (ADAM enzyme; concentration 10 μg/ml) [%] | Inhibition rate (%) of HB-EGF release (ADAM enzyme; concentration 50 μg/ml) [%]
1 | COc1ccc(S(=O)(=O)N(Cc2cccnc2)[C@@H](C(=O)NO)C(C)C)cc1 [CGS27023A] | Δ | Δ | Δ | not capable of suppressing the hyperplasia of the epidermis and the dermis | not capable of suppressing the wrinkle formation at all | exhibited the wrinkle formation preventing effects |  |  |  | 
2 | CCCCCCCC/C=C\CCCCCCCC(=O)O [Oleic acid] | x | x | x | accelerated the hyperplasia of the epidermis and the dermis | promoted the wrinkle formation |  |  |  |  | 
3 | OCC(O)CO [Glycerol] | Δ | x | Δ | not capable of suppressing the hyperplasia of the epidermis and the dermis | not capable of suppressing the wrinkle formation at all |  |  |  |  | 
4 | CC(C)C[C@H](CC(=O)NO)C(=O)N[C@@H](Cc1ccc2ccccc2c1)C(=O)N[C@@H](C)C(=O)NCCN [TAPI-1, N—(R)-(2-(Hydroxyaminocarbonyl)methyl)-4-Methylpentanoyl-L-Nal-L-Alanine 2-Aminoethyl amide] | ∘ | ∘ | ∘ | markedly suppressed the hyperplasia of the epidermis and the dermis | suppressed the wrinkle formation |  | 0.43 | significantly lower |  | 
5 | COc1ccc(C(=O)NO)cc1 [4-Methoxybenzohydroxamic acid] |  |  |  |  |  |  | 0.91 | significantly lower | 14.8 | 55.8
